In publication PMC7555825, “New Insights of the Zn(II)-Induced P2 × 4R Positive Allosteric Modulation: Role of Head Receptor Domain SS2/SS3, E160 and D170” (International Journal of Molecular Sciences, 2020):
Residue numbers refer to the chain shown, from its start.

Experiments:
rP2 × 2R [1] = target: T1, rP2 × 2R (Rattus norvegicus, UniProt P49653); assay: cell-based
T1 sequence (P49653 1-472): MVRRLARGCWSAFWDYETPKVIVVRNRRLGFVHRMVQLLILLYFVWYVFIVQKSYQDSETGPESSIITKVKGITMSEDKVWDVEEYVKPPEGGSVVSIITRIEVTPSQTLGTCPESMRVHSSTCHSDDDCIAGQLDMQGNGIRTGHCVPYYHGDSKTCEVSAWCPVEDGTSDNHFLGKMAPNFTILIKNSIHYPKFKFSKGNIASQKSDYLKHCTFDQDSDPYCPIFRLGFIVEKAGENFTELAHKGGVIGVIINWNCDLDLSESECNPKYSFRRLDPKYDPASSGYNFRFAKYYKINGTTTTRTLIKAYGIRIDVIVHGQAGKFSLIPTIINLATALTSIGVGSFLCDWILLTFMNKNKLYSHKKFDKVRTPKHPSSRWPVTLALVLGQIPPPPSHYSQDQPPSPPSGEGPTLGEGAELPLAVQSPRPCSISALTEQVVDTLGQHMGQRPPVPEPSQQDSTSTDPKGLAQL

rP2 × 2R [2] = target: T1, rP2 × 2R; conditions: NEM treatment + Zn(II) group; control before treatment (first ATP curve)
rP2 × 4R E118Q mutant = target: T2, rP2 × 4R E118Q mutant (Rattus norvegicus, UniProt P51577, E118Q); assay: ATP concentration–response curves, voltage clamp, E118Q mutant; format: cell-based; conditions: 10 µM Zn(II)
T2 construct: host or cells: Xenopus laevis oocytes
T2 sequence (P51577 1-388 E118Q): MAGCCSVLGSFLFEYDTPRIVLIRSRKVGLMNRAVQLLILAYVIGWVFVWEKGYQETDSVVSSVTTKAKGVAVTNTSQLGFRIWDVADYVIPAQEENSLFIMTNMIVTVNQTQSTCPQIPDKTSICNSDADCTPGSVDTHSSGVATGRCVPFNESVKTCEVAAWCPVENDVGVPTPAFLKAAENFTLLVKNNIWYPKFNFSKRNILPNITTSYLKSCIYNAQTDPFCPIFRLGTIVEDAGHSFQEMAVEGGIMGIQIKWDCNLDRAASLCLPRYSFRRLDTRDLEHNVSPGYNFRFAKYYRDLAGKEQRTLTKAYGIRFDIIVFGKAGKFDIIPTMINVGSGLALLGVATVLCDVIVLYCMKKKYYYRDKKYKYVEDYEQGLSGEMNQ

rP2 × 2R [3] = target: T1, rP2 × 2R; assay: Short protocol: Zn(II) potentiation of single 10 µM ATP-evoked currents before/after thiol reagent treatment, rP2 × 2R oocytes; format: cell-based; parameters: expressed in transfected cells; host or cells: Xenopus laevis oocytes (intranuclear plasmid injection); conditions: for times potentiation of ATP-evoked currents by Zn(II): 30 µM Zn(II)
Procedure: (§1) A simpler and shorter assay to test the Zn(II) potentiation was developed to better assess the loss of Zn(II) modulation elicited by the joint co-treatment of NEM plus Zn(II). […] Ten minutes after alkylator washout, cells were treated with Zn(II) plus NEM or iodoacetamide (IA) for 5 min followed by 20 min of alkylator washout. Next, the P2 × R was tested again to examine the magnitude of the Zn(II) potentiation.
(§2) After 10 min of washout we applied 300 µM NEM, 300 µM IA, 300 µM IAc, or 300 µM DTNB for 5 min in absence or presence of Zn(II) (10 µM for rP2 × 4R and 30 µM for rP2 × 2R).

D170A mutant = test system: D170A mutant; parameters: method as in Kasuya et al., (2016) 38; conditions: ref Kasuya et al., (2016) 38; cited from earlier work
rP2 × 4R = target: T3, rP2 × 4R (Rattus norvegicus, UniProt P51577); assay: Short protocol: Zn(II) potentiation of single 10 µM ATP-evoked currents before/after thiol reagent treatment, rP2 × 4R oocytes; format: cell-based; conditions: for fold increase of ATP-evoked currents by Zn(II): 10 µM ATP
T3 construct: host or cells: Xenopus laevis oocytes (intranuclear plasmid injection, pcDNA3)
T3 sequence (P51577 1-388): T2 sequence (P51577 1-388 E118Q) with Q118E
Procedure: as §1, §2
After 10 min of washout we applied 300 µM NEM + 10 µM DTT.

## Nc1ncnc2c1ncn2[C@@H]1O[C@H](COP(=O)(O)OP(=O)(O)OP(=O)(O)O)[C@@H](O)[C@H]1O [ATP, adenosine triphosphate]
rP2 × 2R [1]; ATP EC50, NEM treatment + Zn(II) group, control before treatment (first ATP curve)
  EC50: 39.9 ± 8.3 µM
rP2 × 2R [1]; ATP EC50, NEM treatment + vehicle group, control before treatment (first ATP curve)
  EC50: 67.7 ± 13.3 µM
rP2 × 2R [1]; ATP EC50, after 300 µM NEM + 30 µM Zn(II) treatment, control = ATP curve after treatment
  EC50: 33 ± 7.4 µM
rP2 × 2R [1]; ATP EC50, after 300 µM NEM + vehicle treatment, control = ATP curve after treatment
  EC50: 35 ± 9.2 µM
rP2 × 2R [1]; ATP EC50, vehicle treatment, Figure 1D, without Zn(II)
  EC50: 56.4 ± 7.4 µM
rP2 × 2R [2]
  Imax: 26.7 ± 3.5 µA

## [Cl-].[Cl-].[Zn+2] [Zn(II), zinc chloride (ZnCl2)]
rP2 × 4R E118Q mutant
  fold leftward shift of ATP concentration–response curve by Zn(II): 13.6 fold
rP2 × 2R [3]; before IA + Zn(II) treatment, Figure 2F
  times potentiation of ATP-evoked currents by Zn(II): 8.3 ± 4.0 times
rP2 × 2R [3]; before NEM + Zn(II) treatment, Figure 2E
  times potentiation of ATP-evoked currents by Zn(II): 11.4 ± 2.0 times
rP2 × 2R [3]; co-application with ATP, Figure S1 right
  Zn(II) concentration potentiating the ATP-evoked currents: 30 to 300 µM
D170A mutant
  fold potentiation of the 3 µM ATP-gated currents: 2 fold
rP2 × 4R; 10 µM Zn(II), after 300 µM NEM plus 10 µM Zn(II) incubation
  fold increase of ATP-evoked currents by Zn(II): 1.3 ± 0.2 fold
rP2 × 4R; 10 µM Zn(II), after 300 µM NEM treatment (no Zn(II)) and washout
  fold increase of ATP-evoked currents by Zn(II): 1.6 ± 0.2 fold
rP2 × 4R; 10 µM Zn(II), before NEM plus Zn(II) incubation
  fold increase of ATP-evoked currents by Zn(II): 2.4 ± 0.3 fold
rP2 × 4R; 10 µM Zn(II), before NEM treatment
  fold increase of ATP-evoked currents by Zn(II): 1.8 ± 0.1 fold
rP2 × 4R; 10 µM Zn(II), before 10 µM DTT + 300 µM NEM treatment
  fold potentiation of ATP-evoked currents by Zn(II): 2.0 ± 0.2 fold
rP2 × 4R; 10 µM Zn(II), no potentiation by Zn(II) observed
  ATP plus Zn(II) current after DTT plus NEM treatment, fold for the first ATP application: 2.4 ± 0.7 fold
rP2 × 4R; 10 µM Zn(II), prior to any treatments
  fold potentiation of 10 µM ATP-evoked currents by Zn(II): ~2 fold
rP2 × 4R; after 300 µM DTNB plus 10 µM Zn(II) treatment
  fold Zn(II)-induced potentiation of ATP-evoked currents: 2.1 ± 0.4 fold
rP2 × 4R; after 300 µM IAc plus 10 µM Zn(II) treatment
  fold Zn(II)-induced potentiation of ATP-evoked currents: 2.4 ± 0.7 fold
rP2 × 4R; after 10 min washout initial 10 µM ATP-gated current fully recovered
  reversibility of the metal effect: reversible
rP2 × 4R; before DTNB plus Zn(II) treatment
  fold Zn(II)-induced potentiation of ATP-evoked currents: 1.9 ± 0.3 fold
rP2 × 4R; before IAc plus Zn(II) treatment
  fold Zn(II)-induced potentiation of ATP-evoked currents: 2.2 ± 0.2 fold
